# Assay results: ChEMBL document CHEMBL1123652, “Optimization and in vivo evaluations of a series of small, potent, and specific renin inhibitors containing a novel Leu-Val replacement” (J Med Chem, 1987)
# What was measured:
# Rattus norvegicus [1] = test: Percent radioactivity in excreta of rats 24 h following intravenous administration in feces; assay type: ADME, organism-based; details: in vivo
# Rattus norvegicus [2] = test: Percent radioactivity in excreta of rats 24 hr following intravenous administration in urine; assay type: ADME, organism-based; details: in vivo
# [3] = Percent of [3H]- histidine found in 24 hr urine samples after intraduodenal administration; assay type: ADME; details: other
# [4] = Percent of [3H]- histidine found in 24 hr urine samples after intravenous administration; assay type: ADME
# [5] = Percent of compound found in 24 hr urine samples after intraduodenal administration; assay type: ADME; details: read-out: Activity
# [6] = Percent of compound found in 24 hr urine samples after, intravenous administration; assay type: ADME; details: read-out: Activity
# [7] = Percent of radiolabel found in 24 hr urine samples after intraduodenal administration; assay type: ADME; details: other
# [8] = Percent of radiolabel found in 24 hr urine samples after intravenous administration; assay type: ADME
# Rattus norvegicus [9] = test: Percent radioactivity in excreta of rats 24 hr following intraduodenal administration of the compound in feces; assay type: ADME, organism-based; details: in vivo, other
# Rattus norvegicus [10] = test: Percent radioactivity in excreta of rats 24 hr following intraduodenal administration of the compound in urine; assay type: ADME, organism-based; details: in vivo, other
# Monkey [11] = test: Heart rate determined at dosage of 1.0 mg/kg in male cynomolgus monkey; assay type: functional, Cercopithecidae
# Monkey [12] = test: Heart rate determined at dosage of 10 mg/kg in male cynomolgus monkey; assay type: functional, Cercopithecidae
# Monkey [13] = test: Inhibition of Plasma renin activity was observed in male cynomolgus monkey at dose of 1.0 mg/kg; assay type: functional, Cercopithecidae
# Monkey [14] = test: Inhibition of Plasma renin activity was observed in male cynomolgus monkey at dose of 10 mg/kg; assay type: functional, Cercopithecidae
# Monkey [15] = test: Mean blood pressure was measured in salt depleted male cynomolgus monkey at dose of 1.0 mg/kg intravenously; assay type: functional, Cercopithecidae; details: route intravenous
# Monkey [16] = test: Mean blood pressure was measured in salt depleted male cynomolgus monkey at dose of 10 mg/kg intravenously; assay type: functional, Cercopithecidae; details: route intravenous
# Pepsin A (Sus scrofa) = Pepsin A (Sus scrofa) (UniProt P00791); test: Evaluated for the percentage of inhibition of porcine pepsin at E-5M concentration
# Renin = target: T1, Renin (Homo sapiens, UniProt P00797); test: Evaluated in vitro for inhibitory potency against renin.
# T1 sequence (P00797 whole entry): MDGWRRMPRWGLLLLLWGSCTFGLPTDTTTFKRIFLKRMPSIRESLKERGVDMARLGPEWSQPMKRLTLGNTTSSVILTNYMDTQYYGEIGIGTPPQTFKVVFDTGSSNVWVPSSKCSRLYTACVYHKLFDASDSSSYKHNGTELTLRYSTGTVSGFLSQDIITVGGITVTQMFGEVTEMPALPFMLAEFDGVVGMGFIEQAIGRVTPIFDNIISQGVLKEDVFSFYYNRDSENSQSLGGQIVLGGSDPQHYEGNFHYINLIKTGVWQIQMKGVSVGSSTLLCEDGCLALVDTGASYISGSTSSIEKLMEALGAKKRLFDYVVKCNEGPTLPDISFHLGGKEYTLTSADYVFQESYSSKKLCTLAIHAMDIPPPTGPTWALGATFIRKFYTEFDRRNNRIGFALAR
# Cathepsin D (Bos taurus) = target: T2, Cathepsin D (Bos taurus) (UniProt P80209); test: Evaluated for the percentage of inhibition of bovine cathepsin D at E-5M concentration
# T2 sequence (whole entry): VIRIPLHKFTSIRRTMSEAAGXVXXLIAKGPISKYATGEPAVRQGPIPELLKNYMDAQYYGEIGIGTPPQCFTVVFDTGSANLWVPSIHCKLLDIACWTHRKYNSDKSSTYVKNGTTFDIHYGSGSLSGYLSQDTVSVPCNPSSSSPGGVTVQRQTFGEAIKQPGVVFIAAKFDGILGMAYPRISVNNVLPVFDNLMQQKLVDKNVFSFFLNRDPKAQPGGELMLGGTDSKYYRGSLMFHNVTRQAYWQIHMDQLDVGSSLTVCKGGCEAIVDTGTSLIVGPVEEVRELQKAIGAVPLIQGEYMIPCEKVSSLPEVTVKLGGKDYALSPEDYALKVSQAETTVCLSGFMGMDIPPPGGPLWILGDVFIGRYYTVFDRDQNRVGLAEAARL
# Pepsin A (Sus scrofa), sequence (P00791 60-385 limits assumed): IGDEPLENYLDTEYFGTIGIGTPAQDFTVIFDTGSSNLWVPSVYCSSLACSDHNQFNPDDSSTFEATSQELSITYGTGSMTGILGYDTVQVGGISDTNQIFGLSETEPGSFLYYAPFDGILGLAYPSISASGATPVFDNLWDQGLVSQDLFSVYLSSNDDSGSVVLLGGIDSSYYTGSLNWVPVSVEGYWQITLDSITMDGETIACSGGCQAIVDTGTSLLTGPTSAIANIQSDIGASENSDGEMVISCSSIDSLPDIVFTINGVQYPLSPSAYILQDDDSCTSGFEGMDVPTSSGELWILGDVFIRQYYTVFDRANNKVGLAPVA
smiles,measurement,setting,value
CC(C)(C)OC(=O)N[C@@H](Cc1ccccc1)C(=O)N[C@@H](Cc1c[nH]cn1)C(=O)N[C@@H](CC1CCCCC1)[C@@H](O)CS(=O)(=O)C1CCCCC1,Activity,Rattus norvegicus [1],34.5%
same,Activity,Rattus norvegicus [2],5%
same,Activity,[3],70%
same,Activity,[4],30%
same,dose excreted at 24 h,[5],30%
same,dose excreted at 24 h,[6],70%
same,Activity,[7],1%
same,Activity,[8],5%
same,Activity,Rattus norvegicus [9],26.6%
same,Activity,Rattus norvegicus [10],0.9%
same,Heart rate,Monkey [11],140 beats min-1
same,Heart rate,Monkey [12],197 beats min-1
same,Activity,Monkey [13],35.3 ng/mL/h
same,Activity,Monkey [14],107.7 ng/mL/h
same,Mean blood pressure,Monkey [15],68 mmHg
same,Mean blood pressure,Monkey [16],73 mmHg
same,inhibition,Pepsin A (Sus scrofa),0%
same,IC50,Renin,2.5 nM
same,inhibition,Cathepsin D (Bos taurus),0%
